Laboratory results reported in patent US12723024B2 (priority 2021, dated 2026).

Legend:
[1] = Thermogravimetric analysis (TGA) weight loss; type: physicochemical; settings: salt screening sample, at the temperature given (80-200° C.)
From the text: (§1) According to the salt screening results (see Table 4), totally 19 potential salt hits were identified. All the potential salt hits were further investigated by Differential Scanning Calorimetry (DSC), Thermogravimetric analysis (TGA), H-NMR, Ion chromatography (IC), Karl Fischer titration (KF), and Polarized Light Microscopy (PLM) to confirm their identity and evaluate their physicochemical properties as shown in Table 5 below.

Crystallinity by XRPD = type: physicochemical
Method: (§2) Obtained suspensions were taken out and centrifuged. Solids obtained was analysed by XRPD. Salts with high or medium crystallinity were further characterized (see Table 5).
as §1

[2] = type: physicochemical; settings: salt screening sample
From the text: as §1

[3] = Salt screening (slurry crystallization); type: physicochemical; set-up: key to Salt screening result: (+) shows that a crystalline salt was formed; (−) physical mixtures; settings: for Polymorph obtained in salt screening: XRPD; for Salt screening result: slurry 50° C. then 25° C.
Method: About 45 mg was added to a suitable solvent and different equivalents of acids were added under stirring at 50° C. for about 2 hours and then at 25° C. for at least 32 hours. Ethanol, acetone, and ACN were used as screening solvents. When no precipitation was obtained or only a few solids were obtained, the solutions were placed at 5° C. for crystallization.
as §2

[4] = Hygroscopicity (water uptake) of salt hits; type: physicochemical; settings: salt screening sample; for Hygroscopicity: grade in words
From the text: as §1

[5] = Thermogravimetric analysis (TGA) weight loss; type: physicochemical; settings: large scale batch, at the temperature printed in the same cell (100-170° C.)
[6] = Dynamic vapor sorption (DVS) test at 25° C.; type: physicochemical; settings: for Desorp. (%) / Sorp. (%): cycle 40-0-95-0-40% RH

In the case of `COc1cc(C(F)(F)F)c(OC)cc1[C@@H]1CCCNC1.N[C@@H](CCC(=O)O)C(=O)O` [L-glutamate salt Polymorph B], the “Weight loss (%)” value [1] is reported as 6.6%, the Crystallinity (Crystallinity by XRPD; salt screening sample) is reported as “Medium” and the “Water content (% w/w)” value [2] is reported as 6.9% w/w.

With `COc1cc(C(F)(F)F)c(OC)cc1[C@@H]1CCCNC1.N[C@@H](CCC(=O)O)C(=O)O` [L-glutamate salt Polymorph C] the “Weight loss (%)” value [1] was 6.3%, the Crystallinity (Crystallinity by XRPD; salt screening sample) was “High” and the “Water content (% w/w)” value [2] was 8.7% w/w.

For `COc1cc(C(F)(F)F)c(OC)cc1[C@@H]1CCCNC1.C[C@H](O)C(=O)O` [L-lactate salt Polymorph A], the “Weight loss (%)” value [1] was 4.9%, the “Polymorph obtained in salt screening” value ([3]; ACN) was “Polymorph A” and the Salt screening result ([3]; ACN) was “+”. The Salt screening result ([3]; Acetone) was “Thin suspension”, the Salt screening result ([3]; EtOH) was “Clear solution” and the Hygroscopicity [4] was “None”. The Crystallinity (Crystallinity by XRPD; salt screening sample) was “High” and the “Water content (% w/w)” value [2] was 5.1% w/w.

In the case of `COc1cc(C(F)(F)F)c(OC)cc1[C@@H]1CCCNC1.O=C(O)C[C@H](O)C(=O)O` [L-malate salt Polymorph A], the “Weight loss (%)” value [1] is reported as 2.3%, the “Polymorph obtained in salt screening” value ([3]; ACN) is reported as “Polymorph A” and the Salt screening result ([3]; ACN) is reported as “+”. The “Polymorph obtained in salt screening” value ([3]; Acetone) was “Polymorph A”, the Salt screening result ([3]; Acetone) was “+” and the “Polymorph obtained in salt screening” value ([3]; EtOH) was “Polymorph A”. The Salt screening result ([3]; EtOH) was “+”, the “Hygroscopicity (water uptake % w/w)” value [4] was “(~0.3%) % w/w” and the Crystallinity (Crystallinity by XRPD; salt screening sample) was “High”. The “Water content (% w/w)” value [2] was 5.9% w/w.

In the case of `COc1cc(C(F)(F)F)c(OC)cc1[C@@H]1CCCNC1.O=C(O)C(O)C(O)C(=O)O` [L-tartrate salt (Polymorph B, anhydrate), L-tartaric acid salt of (S)-3-(2,5-dimethoxy-4-(trifluoromethyl)phenyl)piperidine], the “Weight loss (%) at Temperature (° C.)” value [5] is reported as 0.4 at %, the “Weight loss (%) at Temperature (° C.)” value ([5]; listed as L-tartrate salt Polymorph B) is reported as “about 0.4%” and the “Weight loss (%)” value [1] is reported as 0.9%. The “Polymorph obtained in salt screening” value ([3]; ACN) was “Polymorph B”, the Salt screening result ([3]; ACN) was “+” and the “Polymorph obtained in salt screening” value ([3]; Acetone) was “Polymorph B”. For the same molecule, the Salt screening result ([3]; Acetone) was “+”, the “Polymorph obtained in salt screening” value ([3]; EtOH) was “Polymorph B” and the Salt screening result ([3]; EtOH) was “+”. For the same molecule, the “Desorp. (%)” value ([6]; 0% RH, 25° C.) was 0.01%, the “Sorp. (%)” value ([6]; 0% RH, 25° C.) was 0.04% and the “Desorp. (%)” value ([6]; 10% RH, 25° C.) was 0.03%. The “Sorp. (%)” value ([6]; 10% RH, 25° C.) was 0.06%, the “Desorp. (%)” value ([6]; 20% RH, 25° C.) was 0.07% and the “Sorp. (%)” value ([6]; 20% RH, 25° C.) was 0.08%. For the same molecule, the “Water absorbed from 40% RH to 95% RH” value ([6]; 25° C.) was “about 1.5%”, the “Desorp. (%)” value ([6]; 30% RH, 25° C.) was 0.10% and the “Sorp. (%)” value ([6]; 30% RH, 25° C.) was 0.10%. For the same molecule, the “Desorp. (%)” value ([6]; 40% RH, 25° C.) was 0.13%, the “Sorp. (%)” value ([6]; 40% RH, 25° C.) was 0.12% and the “Desorp. (%)” value ([6]; 50% RH, 25° C.) was 0.19%. The “Sorp. (%)” value ([6]; 50% RH, 25° C.) was 0.13%, the “Desorp. (%)” value ([6]; 60% RH, 25° C.) was 0.29% and the “Sorp. (%)” value ([6]; 60% RH, 25° C.) was 0.15%. The “Desorp. (%)” value ([6]; 70% RH, 25° C.) was 0.48%, the “Sorp. (%)” value ([6]; 70% RH, 25° C.) was 0.19% and the “Desorp. (%)” value ([6]; 80% RH, 25° C.) was 0.67%. The “Sorp. (%)” value ([6]; 80% RH, 25° C.) was 0.66%, the “Desorp. (%)” value ([6]; 90% RH, 25° C.) was 1.18% and the “Sorp. (%)” value ([6]; 90% RH, 25° C.) was 1.00%. For the same molecule, the “Desorp. (%)” value ([6]; 95% RH, 25° C.) was 1.60%, the “Sorp. (%)” value ([6]; 95% RH, 25° C.) was 1.60% and the “XRPD after DVS test” value ([6]; DVS at 25° C.) was “No form changes”. The Hygroscopicity ([6]; DVS at 25° C., grade in words) was “slightly hygroscopic”, the Hygroscopicity [4] was “None” and the Crystallinity (Crystallinity by XRPD; large scale batch) was “High”. The Crystallinity (Crystallinity by XRPD; large scale batch, listed as L-tartrate salt Polymorph B) was “high crystallinity” and the Crystallinity (Crystallinity by XRPD; salt screening sample) was “High”.

In the case of `COc1cc(C(F)(F)F)c(OC)cc1[C@@H]1CCCNC1.O=C(O)/C=C/C(=O)O` [Mono-fumarate salt Polymorph C], the “Weight loss (%)” value [1] is reported as 0.6%, the “Polymorph obtained in salt screening” value ([3]; ACN) is reported as “Polymorph C” and the Salt screening result ([3]; ACN) is reported as “+”. The “Polymorph obtained in salt screening” value ([3]; Acetone) was “Polymorph C”, the Salt screening result ([3]; Acetone) was “+” and the “Polymorph obtained in salt screening” value ([3]; EtOH) was “Polymorph C”. For the same molecule, the Salt screening result ([3]; EtOH) was “+”, the “Hygroscopicity (water uptake % w/w)” value [4] was “(~0.2%) % w/w” and the Crystallinity (Crystallinity by XRPD; salt screening sample) was “Medium”.
